Tested on: library of 8,380 IKZF3 degrons (ZF-eGFP/mCherry reporter) in Jurkat cells
Experiment: Pooled library screen (FACS, NGS, limma voom LogFC of positive vs negative read counts)
Assay type: cell-based, human
Procedure, shortened: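 Cells were lentivirally transduced at MOI <0.3, and mCherry+ cells were sorted 6 days later. Eight days after sorting, cells were treated with DMSO or thalidomide analog for 18 h at 37 °C. mCherry+GFPlow (DMSO-set gate, DAPI-excluded) and remaining cells were sorted, and degrons were PCR-amplified from gDNA and sequenced (>600× coverage, 3 biological replicates).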

SMILES: CN1CCN(c2ccc3c(c2)C(=O)N(C2CCC(=O)NC2=O)C3=O)CC1 (centres unmarked) [B08, 2-(2,6-dioxopiperidin-3-yl)-5-(4-methylpiperazin-1-yl)isoindoline-1,3-dione]
- B08_logFC (Degron-ID 115, SEQ ID NO 2354, 46F_47A_49E_50V_52G_53A_54S_55F_67L): 2.665
- B08_logFC (Degron-ID 312, SEQ ID NO 2356, 46F_47C_49E_50I_52G_53A_54P_55F_67L): 2.662
- B08_logFC (Degron-ID 313, SEQ ID NO 2359, 46F_47C_49E_50I_52G_53A_54Q_55F_67L): 2.659
- B08_logFC (Degron-ID 316, SEQ ID NO 2364, 46F_47C_49E_50I_52G_53A_54T_55F_67L): 2.641
- B08_logFC (Degron-ID 355, SEQ ID NO 2334, 46F_47C_49E_50V_52G_53A_54S_55F_67L): 2.718
- B08_logFC (Degron-ID 432, SEQ ID NO 2346, 46F_47C_49P_50I_52G_53A_54P_55F_67L): 2.683
- B08_logFC (Degron-ID 480, SEQ ID NO 2273, 46F_47D_49D_50I_52G_53A_54A_55F_67L): 2.887
- B08_logFC (Degron-ID 495, SEQ ID NO 2327, 46F_47D_49D_50I_52G_53A_54S_55F_67L): 2.748
- B08_logFC (Degron-ID 556, SEQ ID NO 2290, 46F_47D_49E_50I_52G_53A_54T_55F_67L): 2.821
- B08_logFC (Degron-ID 557, SEQ ID NO 2336, 46F_47D_49E_50I_52G_53A_54V_55F_67L): 2.714
- B08_logFC (Degron-ID 591, SEQ ID NO 2348, 46F_47D_49E_50V_52G_53A_54N_55F_67L): 2.678
- B08_logFC (Degron-ID 593, SEQ ID NO 2355, 46F_47D_49E_50V_52G_53A_54Q_55F_67L): 2.664
- B08_logFC (Degron-ID 600, SEQ ID NO 2284, 46F_47D_49N_50I_52G_53A_54A_55F_67L): 2.845
- B08_logFC (Degron-ID 825, SEQ ID NO 2282, 46F_47E_49E_50V_52G_53A_54G_55F_67L): 2.853
- B08_logFC (Degron-ID 852, SEQ ID NO 2326, 46F_47E_49N_50I_52G_53A_54P_55F_67L): 2.749
- B08_logFC (Degron-ID 966, SEQ ID NO 2283, 46F_47F_49D_50I_52G_53A_54H_55F_67L): 2.85
- B08_logFC (Degron-ID 1014, SEQ ID NO 2319, 46F_47F_49D_50V_52G_53A_54R_55F_67L): 2.759
- B08_logFC (Degron-ID 1079, SEQ ID NO 2329, 46F_47F_49E_50V_52G_53A_54Y_55F_67L): 2.743
- B08_logFC (Degron-ID 1091, SEQ ID NO 2265, 46F_47F_49N_50I_52G_53A_54N_55F_67L): 2.903
- B08_logFC (Degron-ID 1095, SEQ ID NO 2275, 46F_47F_49N_50I_52G_53A_54S_55F_67L): 2.882
- B08_logFC (Degron-ID 1096, SEQ ID NO 2340, 46F_47F_49N_50I_52G_53A_54T_55F_67L): 2.704
- B08_logFC (Degron-ID 1146, SEQ ID NO 2305, 46F_47F_49P_50I_52G_53A_54H_55F_67L): 2.792
- B08_logFC (Degron-ID 1147, SEQ ID NO 2343, 46F_47F_49P_50I_52G_53A_54I_55F_67L): 2.701
- B08_logFC (Degron-ID 1149, SEQ ID NO 2361, 46F_47F_49P_50I_52G_53A_54L_55F_67L): 2.65
- B08_logFC (Degron-ID 1154, SEQ ID NO 2333, 46F_47F_49P_50I_52G_53A_54R_55F_67L): 2.724
- B08_logFC (Degron-ID 1159, SEQ ID NO 2293, 46F_47F_49P_50I_52G_53A_54Y_55F_67L): 2.817
- B08_logFC (Degron-ID 1186, SEQ ID NO 2321, 46F_47F_49P_50V_52G_53A_54H_55F_67L): 2.754
- B08_logFC (Degron-ID 1192, SEQ ID NO 2303, 46F_47F_49P_50V_52G_53A_54P_55F_67L): 2.797
- B08_logFC (Degron-ID 1440, SEQ ID NO 2337, 46F_47H_49D_50I_52G_53A_54A_55F_67L): 2.712
- B08_logFC (Degron-ID 1541, SEQ ID NO 2267, 46F_47H_49E_50V_52G_53A_54C_55F_67L): 2.901
- B08_logFC (Degron-ID 1552, SEQ ID NO 2268, 46F_47H_49E_50V_52G_53A_54P_55F_67L): 2.901
- B08_logFC (Degron-ID 1572, SEQ ID NO 2307, 46F_47H_49N_50I_52G_53A_54P_55F_67L): 2.781
- B08_logFC (Degron-ID 1575, SEQ ID NO 2324, 46F_47H_49N_50I_52G_53A_54S_55F_67L): 2.75
- B08_logFC (Degron-ID 1635, SEQ ID NO 2315, 46F_47H_49P_50I_52G_53A_54S_55F_67L): 2.766
- B08_logFC (Degron-ID 1660, SEQ ID NO 2328, 46F_47H_49P_50V_52G_53A_54A_55F_67L): 2.746
- B08_logFC (Degron-ID 1673, SEQ ID NO 2281, 46F_47H_49P_50V_52G_53A_54Q_55F_67L): 2.855
- B08_logFC (Degron-ID 1812, SEQ ID NO 2277, 46F_47I_49N_50I_52G_53A_54P_55F_67L): 2.872
- B08_logFC (Degron-ID 2412, SEQ ID NO 2342, 46F_47M_49D_50I_52G_53A_54P_55F_67L): 2.702
- B08_logFC (Degron-ID 2832, SEQ ID NO 2294, 46F_47N_49P_50I_52G_53A_54P_55F_67L): 2.815
- B08_logFC (Degron-ID 2940, SEQ ID NO 2314, 46F_47Q_49E_50I_52G_53A_54A_55F_67L): 2.768
- B08_logFC (Degron-ID 2955, SEQ ID NO 2358, 46F_47Q_49E_50I_52G_53A_54S_55F_67L): 2.66
- B08_logFC (Degron-ID 2957, SEQ ID NO 2350, 46F_47Q_49E_50I_52G_53A_54V_55F_67L): 2.675
- B08_logFC (Degron-ID 2987, SEQ ID NO 2341, 46F_47Q_49E_50V_52G_53A_54I_55F_67L): 2.703
- B08_logFC (Degron-ID 3012, SEQ ID NO 2271, 46F_47Q_49N_50I_52G_53A_54P_55F_67L): 2.893
- B08_logFC (Degron-ID 3100, SEQ ID NO 2338, 46F_47Q_49P_50V_52G_53A_54A_55F_67L): 2.707
- B08_logFC (Degron-ID 3172, SEQ ID NO 2291, 46F_47R_49D_50V_52G_53A_54P_55F_67L): 2.82
- B08_logFC (Degron-ID 3252, SEQ ID NO 2349, 46F_47R_49N_50I_52G_53A_54P_55F_67L): 2.676
- B08_logFC (Degron-ID 3360, SEQ ID NO 2289, 46F_47S_49D_50I_52G_53A_54A_55F_67L): 2.823
- B08_logFC (Degron-ID 3421, SEQ ID NO 2287, 46F_47S_49E_50I_52G_53A_54C_55F_67L): 2.828
- B08_logFC (Degron-ID 3433, SEQ ID NO 2323, 46F_47S_49E_50I_52G_53A_54Q_55F_67L): 2.75

From US20260284208A1, “SYSTEM” (Oxford University Innovation Limited, priority 2023, published 2026)
